Results from article PMC6050662, “Lycorine inhibits glioblastoma multiforme growth through EGFR suppression” (Journal of Experimental & Clinical Cancer Research : CR, 2018).

Target: T1, EGFR (Homo sapiens, UniProt P00533)
T1 construct: GST-tagged EGFR (696–1022), intracellular kinase domain
Assay: SPR (Biacore T200, GST-EGFR captured by anti-GST on CM5 chip); also kinase assay (Kinase-Glo) IC50 about […]
Type: binding

T1 sequence (P00533 696-1022): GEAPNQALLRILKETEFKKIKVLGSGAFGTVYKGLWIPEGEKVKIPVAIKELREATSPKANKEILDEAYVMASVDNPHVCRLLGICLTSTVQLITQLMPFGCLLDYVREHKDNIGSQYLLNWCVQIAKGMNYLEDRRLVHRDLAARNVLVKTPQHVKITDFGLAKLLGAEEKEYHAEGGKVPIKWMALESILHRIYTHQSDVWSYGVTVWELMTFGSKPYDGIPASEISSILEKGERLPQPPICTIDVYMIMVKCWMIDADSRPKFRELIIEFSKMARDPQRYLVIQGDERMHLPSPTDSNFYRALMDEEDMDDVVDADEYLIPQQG

## O[C@H]1[C@H]2c3cc4c(cc3CN3CCC(=C[C@@H]1O)[C@H]23)OCO4 [Lycorine]
  Kd: ~3.6 µM
